The values that follow come from patent publication US20140323418A1, “SELECTIVE KINASE INHIBITORS” (PORTOLA PHARMACEUTICALS, INC., priority 2011, published 2014).

In this assay the target is T1, full length active recombinant SYK enzyme (Homo sapiens, UniProt P43405).
T1 construct: full length active recombinant SYK enzyme (Millipore, Calif.); purchased Millipore
In words: Inhibition of Syk tyrosine phosphorylation activity (LANCE TR-FRET kinase assay). To be noted: 1 nM SYK, 550 nM substrate, 100 μM ATP, 1 hour room temperature. The format is biochemical. In general terms: Time-resolved FRET reads energy transfer from a long-lived donor to a nearby acceptor.

What is called IC50 is the concentration that inhibits the measured activity by half. As to `NC(=O)c1cnc(N[C@H](C2CC2)C2(N)CC2)nc1Nc1cccc(F)c1` [Example 156, (R)-2-(1-(1-aminocyclopropyl)(cyclopropyl)methylamino)-4-(3-fluorophenylamino)pyrimidine-5-carboxamide], the IC50 lay in the range of 1 to 10 nM. For `NC(=O)c1cnc(N[C@@H]2CCCC[C@@H]2N)nc1Nc1cccc(-n2ncc(O)n2)c1` [Example 252, 2-(((1R,2S)-2-aminocyclohexyl)amino)-4-((3-(4-hydroxy-2H-1,2,3-triazol-2-yl)phenyl)amino)pyrimidine-5-carboxamide] the value was 1 to 10 nM; for `NC(=O)c1cnc(N[C@@H]2CCCC(F)(F)[C@@H]2N)nc1Nc1ccc2scnc2c1` [Example 30, 2-(((1R,2R)-2-amino-3,3-difluorocyclohexyl)amino)-4-(benzo[d]thiazol-5-ylamino)pyrimidine-5-carboxamide], 100 to 1000 nM. For the compound `Cn1ccc2c(Nc3nc(NC[C@@H](N)CC(F)F)ncc3C(N)=O)ccc(F)c21` [Example 86, (S)-2-(2-amino-4,4-difluorobutylamino)-4-(7-fluoro-1-methyl-1H-indol-4-ylamino)pyrimidine-5-carboxamide], the IC50 fell in the range of 10 to 100 nM. On to `NC(=O)c1cnc(NC2CCNC2=O)nc1Nc1cnc2ccccc2c1` (stereo not drawn) [Example 216, 2-((2-oxopyrrolidin-3-yl)amino)-4-(quinolin-3-ylamino)pyrimidine-5-carboxamide], for which the IC50 was greater than 1000 nM. As to `CCc1c(C)n(C)c2cccc(Nc3nc(N[C@@H]4CCCC[C@@H]4N)ncc3C(N)=O)c12` [Example 101, 2-((1R,2S)-2-aminocyclohexylamino)-4-(3-ethyl-1,2-dimethyl-1H-indol-4-ylamino)pyrimidine-5-carboxamide], the half-maximal inhibitory concentration (IC50) lay within 100 to 1000 nM. The result for `NC(=O)c1cnc(N[C@@H]2CCNC2)nc1Nc1cccc(-c2ncccn2)c1` [Example 222] reads 10 to 100 nM; that for `Cc1cccc(Nc2nc(NCC(N)CC(F)F)ncc2C(N)=O)c1` (stereo not drawn) [Example 206], 10 to 100 nM. For `Cc1cccc(Nc2nc(N[C@@H]3CC[C@@H](C(=O)N4CCC4)C[C@@H]3N)ncc2C(N)=O)c1` [Example 191, 2-((1R,2S,4R)-2-amino-4-(azetidine-1-carbonyl)cyclohexylamino)-4-(m-tolylamino)pyrimidine-5-carboxamide], the IC50 lay within 1 to 10 nM.

Regarding `CC(=O)N[C@H]1CCCC[C@H]1Nc1ncc(C(N)=O)c(Nc2cccc(-n3nccn3)c2)n1` [Example 196], the IC50 lay in the range of 100 to 1000 nM. In the case of `Cc1cccc(Nc2nc(N[C@H](c3ccccc3)C3(N)CC3)ncc2C(N)=O)c1` [Example 147, (R)-2-(1-(1-aminocyclopropyl)(phenyl)methylamino)-4-(m-tolylamino)pyrimidine-5-carboxamide], the IC50 was 10 to 100 nM. As to `COc1cccc(Nc2nc(N[C@@H](C(N)=O)C3CC3)ncc2C(N)=O)c1` [Example 64, (R)-2-((2-amino-1-cyclopropyl-2-oxoethyl)amino)-4-((3-methoxyphenyl)amino)pyrimidine-5-carboxamide], the IC50 is 100 to 1000 nM. The result for `CC[C@@H](Nc1ncc(C(N)=O)c(Nc2cccc(C3=NCCCN3)c2)n1)C1(N)CC1` [Example 133, (R)-2-(1-(1-aminocyclopropyl)propylamino)-4-(3-(1,4,5,6-tetrahydropyrimidin-2-yl)phenylamino)pyrimidine-5-carboxamide] reads 100 to 1000 nM; that for `CC[C@@H](Nc1nc(Nc2cc(C)ns2)ncc1C(N)=O)C(N)=O` [Example 205], 100 to 1000 nM. Regarding `Cc1cccc(Nc2nc(N[C@@H](CN)CC(F)F)ncc2C(N)=O)c1` [Example 89, (R)-4-(m-toluidino)-2-(1-amino-4,4-difluorobutan-2-ylamino)pyrimidine-5-carboxamide], the IC50 lay within 10 to 100 nM. The result for `CCn1ccc2c(Nc3nc(NC(C)C)ncc3C(N)=O)cccc21` [Example 115, 4-(1-ethyl-1H-indol-4-ylamino)-2-(isopropylamino)pyrimidine-5-carboxamide] reads 100 to 1000 nM; that for `Cc1cccc(Nc2nc(NC[C@@H](N)CC(F)F)ncc2C(N)=O)c1` [Example 78, (S)-4-(m-toluidino)-2-(2-amino-4,4-difluorobutylamino)pyrimidine-5-carboxamide], 10 to 100 nM. The result for `CC[C@@H](Nc1ncc(C(N)=O)c(Nc2cnn3ccccc23)n1)C(N)=O` [Example 56, (R)-2-((1-amino-1-oxobutan-2-yl)amino)-4-(pyrazolo[1,5-a]pyridin-3-ylamino)pyrimidine-5-carboxamide] reads 10 to 100 nM; that for `NC(=O)c1cnc(N[C@H](C2CC2)C2(N)CC2)nc1Nc1cccc(-n2cccn2)c1` [Example 151, (R)-4-(3-(1H-pyrazol-1-yl)phenylamino)-2-(1-(1-aminocyclopropyl)(cyclopropyl)methylamino)pyrimidine-5-carboxamide], 1 to 10 nM. In the case of `NC(=O)c1cnc(N[C@@H]2CCCC(F)(F)[C@@H]2N)nc1Nc1cnc2ccccc2c1` [Example 168, 2-((1R,2R)-2-amino-3,3-difluorocyclohexylamino)-4-(quinolin-3-ylamino)pyrimidine-5-carboxamide], the IC50 was in the range of 100 to 1000 nM. For `Cc1nsc(Nc2nc(N[C@@H]3CCCC[C@@H]3N)ncc2C(N)=O)c1Cl` [Example 232, 2-(((1R,2S)-2-aminocyclohexyl)amino)-4-((4-chloro-3-methylisothiazol-5-yl)amino)pyrimidine-5-carboxamide] the value was 10 to 100 nM; for `NC(=O)c1cnc(Nc2ccccc2)nc1NC1CCC(N)CC1` (stereo not drawn) [Example 183, 4-(4-aminocyclohexylamino)-2-(phenylamino)pyrimidine-5-carboxamide], 10 to 100 nM; for `CC[C@@H](Nc1ncc(C(N)=O)c(Nc2cc(C)ns2)n1)C(N)=O` [Example 65, (R)-2-((1-amino-1-oxobutan-2-yl)amino)-4-((3-methylisothiazol-5-yl)amino)pyrimidine-5-carboxamide], 10 to 100 nM. Consider `NC(=O)c1cnc(N[C@H](C2CC2)C2(N)CC2)nc1Nc1ccc2c(c1)CCCN2` [Example 153, (R)-2-(1-(1-aminocyclopropyl)(cyclopropyl)methylamino)-4-(1,2,3,4-tetrahydroquinolin-6-ylamino)pyrimidine-5-carboxamide], for which the IC50 lay within 10 to 100 nM.

On to `NC(=O)c1cnc(N[C@@H]2CCCC[C@@H]2N)nc1Nc1ccc(Cl)c(-n2nccn2)c1` [Example 22, 2-((1R,2S)-2-aminocyclohexylamino)-4-(4-chloro-3-(2H-1,2,3-triazol-2-yl)phenylamino)pyrimidine-5-carboxamide], for which the IC50 lay in the range of 1 to 10 nM. The result for `CC(C)[C@@H](Nc1ncc(C(N)=O)c(Nc2ccc3ncccc3c2)n1)C(N)=O` [Example 69, (R)-2-(1-amino-3-methyl-1-oxobutan-2-ylamino)-4-(quinolin-6-ylamino)pyrimidine-5-carboxamide] reads 10 to 100 nM; that for `NC(=O)c1cnc(N[C@@H]2CCC[C@H](F)[C@@H]2N)nc1Nc1cccc(-c2ncccn2)c1` [Example 236, 2-((1R,2R,3S)-2-amino-3-fluorocyclohexylamino)-4-(3-(pyrimidin-2-yl)phenylamino)pyrimidine-5-carboxamide], 10 to 100 nM.
